The results in this text go back to patent publication US20220031723A1, “POWDERED FOOD COMPOSITION COMPRISING ERIOCITRIN” (EUROMED, S.A., priority 2020, published 2022).

The nature of series [1]: Occurrence of plasma and urine metabolites in volunteers after consuming lemon or orange extract. Format: in vivo, human. From the text:
Through a targeted metabolomic strategy, a total of 17 metabolites were tentatively identified (Table 3). No hesperidin or eriocitrin-derived metabolites were detected in any volunteer at baseline. All the identified metabolites were detected at least in one volunteer, independently of the extract consumed, except for the metabolites M9 (eriodictyol sulfoglucuronide) and M11 (hesperetin sulfoglucuronide), which only were detected after consuming lemon and orange extract, respectively (Table 3). These representative EICs illustrate the metabolites identified in urine (F3 fraction) after consuming lemon (FIG. 3A) and orange (FIG. 3B) extracts, and plasma after consuming lemon (FIG. 3C) and orange (FIG. 3D) extracts. From the 17 metabolites, 16 were detected after consuming lemon extract (except M11), and 15 after consuming orange extract (except M9 and M10 in urine, and M9 and M12 in plasma) (Table 3).

Series [2] can be described thus: Urinary excretion of quantified metabolites in collected fractions after extract intake. The series is classed as in vivo, human. As to conditions: mean ± SD; for Metabolite quantified in urine fraction F1: fraction 0 to 4 h; for Metabolite quantified in urine fraction F2: fraction 4 to 8 h; for Metabolite quantified in urine fraction F3: fraction 8 to 10 h; for Metabolite quantified in urine fraction F4: fraction collected at 24 h (10-24 h); for Metabolite quantified in urine, Total F (24 h): sum of fractions F1-F4. How it is done: Table 4 and Table 5 show the urinary excretion of quantified metabolites at the different fractions collected, i.e., 0-4 h (F1), 4-8 h (F2), 8-10 h (F3), and 10-24 h (F4), after extracts intake.

As to `O=C1C[C@@H](c2ccc(O)cc2)Oc2cc(O[C@@H]3O[C@H](C(=O)O)[C@@H](O)[C@H](O)[C@H]3O)cc(O)c21` [M3, Naringenin 7-O-glucuronide], in series [1] (human, in vivo), the “Occurrence Plasma LE (number of volunteers in whom metabolite was detected)” value is 16, the “Occurrence Plasma LE (second column so headed; number of volunteers in whom metabolite was detected)” value is on record as 14, the “Occurrence Urine LE (number of volunteers in whom metabolite was detected)” value amounted to 16 and the “Occurrence Urine LE (second column so headed; number of volunteers in whom metabolite was detected)” value came to 16. Besides, in series [2] (after consuming lemon extract), the “Metabolite quantified in urine fraction F1” value stood at 1.0 ± 0.7 μg/mg creatinine, the “Metabolite quantified in urine fraction F2” value is reported as 2.6 ± 4.0 μg/mg creatinine, the “Metabolite quantified in urine fraction F3” value was found to be 1.7 ± 1.9 μg/mg creatinine and the “Metabolite quantified in urine fraction F4” value was found to be 0.3 ± 0.3 μg/mg creatinine. Besides, the “Metabolite quantified in urine, Total F (24 h)” value (shortened to “Metabolite quantified … (24 h)”) in series [2] (after consuming lemon extract) was 5.7 ± 6.9 μg/mg creatinine. Moreover, in series [2] (after consuming orange extract), the “Metabolite quantified in urine fraction F1” value worked out at 0.1 ± 0.1 μg/mg creatinine, the “Metabolite quantified in urine fraction F2” value is listed as 0.2 ± 0.6 μg/mg creatinine, the “Metabolite quantified in urine fraction F3” value is 0.2 ± 0.2 μg/mg creatinine and the “Metabolite quantified in urine fraction F4” value is listed as 0.2 ± 0.3 μg/mg creatinine. The “Metabolite quantified … (24 h)” value in series [2] (after consuming orange extract) is reported as 0.7 ± 1.5 μg/mg creatinine.
For `O=C1C[C@@H](c2ccc(O[C@@H]3O[C@H](C(=O)O)[C@@H](O)[C@H](O)[C@H]3O)cc2)Oc2cc(O)cc(O)c21` [M5, Naringenin 4'-O-glucuronide], in series [1] (plasma, after consuming lemon extract (LE), n = 16 volunteers), the “Occurrence Plasma LE (number of volunteers in whom metabolite was detected)” value stood at 16. Further, the “Occurrence Plasma LE (second column so headed; number of volunteers in whom metabolite was detected)” value in series [1] (plasma, fourth occurrence column, probably orange extract (OE), n = 16 volunteers) was 14. For the same molecule, the “Occurrence Urine LE (number of volunteers in whom metabolite was detected)” value in series [1] (urine, after consuming lemon extract (LE), n = 16 volunteers) is recorded as 16. Further, the “Occurrence Urine LE (second column so headed; number of volunteers in whom metabolite was detected)” value in series [1] (urine, third occurrence column, probably orange extract (OE), n = 16 volunteers) is 16. For the same molecule, in series [2] (after consuming lemon extract), the “Metabolite quantified in urine fraction F1” value was 0.8 ± 0.5 μg/mg creatinine, the “Metabolite quantified in urine fraction F2” value is 1.7 ± 2.7 μg/mg creatinine, the “Metabolite quantified in urine fraction F3” value is given as 1.3 ± 1.5 μg/mg creatinine and the “Metabolite quantified in urine fraction F4” value amounted to 0.4 ± 0.3 μg/mg creatinine. The “Metabolite quantified … (24 h)” value in series [2] (after consuming lemon extract) is on record as 4.2 ± 5.0 μg/mg creatinine. Besides, in series [2] (after consuming orange extract), the “Metabolite quantified in urine fraction F1” value was 0.1 ± 0.1 μg/mg creatinine, the “Metabolite quantified in urine fraction F2” value is recorded as 0.3 ± 0.5 μg/mg creatinine, the “Metabolite quantified in urine fraction F3” value was 0.3 ± 0.4 μg/mg creatinine and the “Metabolite quantified in urine fraction F4” value was 0.3 ± 0.5 μg/mg creatinine. Moreover, the “Metabolite quantified … (24 h)” value in series [2] (after consuming orange extract) is on record as 1.0 ± 1.5 μg/mg creatinine.
Turning to `COc1ccc([C@@H]2CC(=O)c3c(O)cc(O[C@@H]4O[C@H](C(=O)O)[C@@H](O)[C@H](O)[C@H]4O)cc3O2)cc1O` [M7, Hesperetin 7-O-glucuronide], in series [1] (human, in vivo), the “Occurrence Plasma LE (number of volunteers in whom metabolite was detected)” value is listed as 16, the “Occurrence Plasma LE (second column so headed; number of volunteers in whom metabolite was detected)” value was 16, the “Occurrence Urine LE (number of volunteers in whom metabolite was detected)” value was 16 and the “Occurrence Urine LE (second column so headed; number of volunteers in whom metabolite was detected)” value amounted to 16. In addition, in series [2] (after consuming lemon extract), the “Metabolite quantified in urine fraction F1” value amounted to 1.2 ± 1.4 μg/mg creatinine, the “Metabolite quantified in urine fraction F2” value is 4.0 ± 4.7 μg/mg creatinine, the “Metabolite quantified in urine fraction F3” value is 2.7 ± 2.5 μg/mg creatinine and the “Metabolite quantified in urine fraction F4” value came to 0.6 ± 0.6 μg/mg creatinine. Moreover, in series [2] (after consuming lemon extract), the “Metabolite quantified … (24 h)” value was found to be 8.5 ± 9.2 μg/mg creatinine. For the same molecule, in series [2] (after consuming orange extract), the “Metabolite quantified in urine fraction F1” value worked out at 0.2 ± 0.6 μg/mg creatinine, the “Metabolite quantified in urine fraction F2” value was determined as 2.1 ± 5.7 μg/mg creatinine, the “Metabolite quantified in urine fraction F3” value is listed as 2.2 ± 3.6 μg/mg creatinine and the “Metabolite quantified in urine fraction F4” value was 1.1 ± 3.3 μg/mg creatinine. In addition, the “Metabolite quantified … (24 h)” value in series [2] (after consuming orange extract) was 5.6 ± 13.2 μg/mg creatinine.
As to `COc1ccc(C2CC(=O)c3c(O)cc(O)cc3O2)cc1O[C@@H]1O[C@H](C(=O)O)[C@@H](O)[C@H](O)[C@H]1O` (stereo partly shown) [M8, Hesperetin 3'-O-glucuronide], in series [1] (human, in vivo), the “Occurrence Plasma LE (number of volunteers in whom metabolite was detected)” value was found to be 16, the “Occurrence Plasma LE (second column so headed; number of volunteers in whom metabolite was detected)” value came to 16, the “Occurrence Urine LE (number of volunteers in whom metabolite was detected)” value worked out at 16 and the “Occurrence Urine LE (second column so headed; number of volunteers in whom metabolite was detected)” value is recorded as 16. Also, in series [2] (after consuming lemon extract), the “Metabolite quantified in urine fraction F1” value came out at 2.1 ± 2.3 μg/mg creatinine, the “Metabolite quantified in urine fraction F2” value turned out to be 10.7 ± 11.3 μg/mg creatinine, the “Metabolite quantified in urine fraction F3” value worked out at 9.2 ± 7.7 μg/mg creatinine and the “Metabolite quantified in urine fraction F4” value amounted to 2.2 ± 2.4 μg/mg creatinine. In series [2] (after consuming lemon extract), the “Metabolite quantified … (24 h)” value turned out to be 24.2 ± 23.7 μg/mg creatinine. In series [2] (after consuming orange extract), the “Metabolite quantified in urine fraction F1” value is on record as 0.5 ± 1.5 μg/mg creatinine, the “Metabolite quantified in urine fraction F2” value was 4.3 ± 11.5 μg/mg creatinine, the “Metabolite quantified in urine fraction F3” value amounted to 3.3 ± 4.2 μg/mg creatinine and the “Metabolite quantified in urine fraction F4” value is on record as 1.8 ± 1.6 μg/mg creatinine. In series [2] (after consuming orange extract), the “Metabolite quantified … (24 h)” value is 9.9 ± 18.9 μg/mg creatinine.
Take `O=C1C[C@@H](c2ccc(O)c(O)c2)Oc2cc(O)cc(O)c21` [M12, Eriodictyol]: in series [1] (human, in vivo), the “Occurrence Plasma LE (number of volunteers in whom metabolite was detected)” value is reported as 16, the “Occurrence Plasma LE (second column so headed; number of volunteers in whom metabolite was detected)” value came out at 0, the “Occurrence Urine LE (number of volunteers in whom metabolite was detected)” value came to 14 and the “Occurrence Urine LE (second column so headed; number of volunteers in whom metabolite was detected)” value is 4.
On to `COc1ccc(C2CC(=O)c3c(O)cc(O)cc3O2)cc1OS(=O)(=O)O` (stereo not shown) [M14, Hesperetin 3'-O-sulfate], for which, in series [1] (human, in vivo), the “Occurrence Plasma LE (number of volunteers in whom metabolite was detected)” value amounted to 16, the “Occurrence Plasma LE (second column so headed; number of volunteers in whom metabolite was detected)” value came out at 16, the “Occurrence Urine LE (number of volunteers in whom metabolite was detected)” value amounted to 16 and the “Occurrence Urine LE (second column so headed; number of volunteers in whom metabolite was detected)” value is recorded as 16. Further, in series [2] (after consuming lemon extract), the “Metabolite quantified in urine fraction F1” value is on record as 1.9 ± 2.6 μg/mg creatinine, the “Metabolite quantified in urine fraction F2” value amounted to 4.3 ± 4.5 μg/mg creatinine, the “Metabolite quantified in urine fraction F3” value is 3.3 ± 3.1 μg/mg creatinine and the “Metabolite quantified in urine fraction F4” value was 0.7 ± 0.6 μg/mg creatinine. The “Metabolite quantified … (24 h)” value in series [2] (after consuming lemon extract) stood at 9.0 ± 9.1 μg/mg creatinine. For the same molecule, in series [2] (after consuming orange extract), the “Metabolite quantified in urine fraction F1” value turned out to be 0.1 ± 0.3 μg/mg creatinine, the “Metabolite quantified in urine fraction F2” value was found to be 1.2 ± 3.3 μg/mg creatinine, the “Metabolite quantified in urine fraction F3” value is recorded as 1.9 ± 3.1 μg/mg creatinine and the “Metabolite quantified in urine fraction F4” value is given as 0.6 ± 0.6 μg/mg creatinine. For the same molecule, the “Metabolite quantified … (24 h)” value in series [2] (after consuming orange extract) is 3.8 ± 7.3 μg/mg creatinine.
Turning to `O=C1C[C@@H](c2ccc(O)cc2)Oc2cc(O)cc(O)c21` [M15, Naringenin], in series [1] (human, in vivo), the “Occurrence Plasma LE (number of volunteers in whom metabolite was detected)” value amounted to 6, the “Occurrence Plasma LE (second column so headed; number of volunteers in whom metabolite was detected)” value was 2, the “Occurrence Urine LE (number of volunteers in whom metabolite was detected)” value is recorded as 9 and the “Occurrence Urine LE (second column so headed; number of volunteers in whom metabolite was detected)” value came to 5.
Taken in the same sequence, the figures for `COc1cc([C@@H]2CC(=O)c3c(O)cc(O)cc3O2)ccc1O` [M16, Homoeriodictyol] were 15, 1, 12 and 1.
For the molecule `COc1ccc([C@@H]2CC(=O)c3c(O)cc(O)cc3O2)cc1O` [M17, Hesperetin], in series [1] (human, in vivo), the “Occurrence Plasma LE (number of volunteers in whom metabolite was detected)” value was 8, the “Occurrence Plasma LE (second column so headed; number of volunteers in whom metabolite was detected)” value came out at 3, the “Occurrence Urine LE (number of volunteers in whom metabolite was detected)” value is 5 and the “Occurrence Urine LE (second column so headed; number of volunteers in whom metabolite was detected)” value was found to be 8.
As for Eriodictyol sulfoglucuronide [M9], in series [1] (human, in vivo), the “Occurrence Plasma LE (number of volunteers in whom metabolite was detected)” value is listed as 15, the “Occurrence Plasma LE (second column so headed; number of volunteers in whom metabolite was detected)” value is 0, the “Occurrence Urine LE (number of volunteers in whom metabolite was detected)” value stood at 5 and the “Occurrence Urine LE (second column so headed; number of volunteers in whom metabolite was detected)” value came out at 0.
For the molecule Hesperetin sulfoglucuronide [M11], in series [1] (human, in vivo), the “Occurrence Plasma LE (number of volunteers in whom metabolite was detected)” value is listed as 0, the “Occurrence Plasma LE (second column so headed; number of volunteers in whom metabolite was detected)” value was determined as 8, the “Occurrence Urine LE (number of volunteers in whom metabolite was detected)” value is reported as 0 and the “Occurrence Urine LE (second column so headed; number of volunteers in whom metabolite was detected)” value was 7.
